According to patent US20250011368A1, “DLL3 TARGETING PEPTIDES AND CONSTRUCTS THEREOF” (MARIANA ONCOLOGY INC., priority 2023, published 2025):
Numbered stars: 1 amine (or outer) side, 2 acyl side, 3 side chain; on linkers, the order of the positions; unused ones are H or OH. Bridge positions count the residues as written; N and C are the ends. Square brackets hold non-standard residues; d marks the D form. Peptide text beside a SMILES is read from it. * marks the point of attachment. Ala(piperidin-4-yl) = O=C([C@H](CC1CCN([*:3])CC1)N[*:1])[*:2]; DOTA = O=C(O)CN1CCN(CC(=O)O)CCN(CC(=O)*)CCN(CC(=O)O)CC1; Ala(morpholin-4-yl) = N[C@@H](CN1CCOCC1)C(=O)O; 2Nal = N[C@@H](Cc1ccc2ccccc2c1)C(=O)O; 3Pal = N[C@@H](Cc1cccnc1)C(=O)O; 4Pal = N[C@@H](Cc1ccncc1)C(=O)O

Columns and labels:
human DLL3 = target: T1, human DLL3 (Homo sapiens, UniProt Q9NYJ7); test: Affinity determination by Surface Plasmon Resonance (SPR); format: binding; settings: 25° C., biotinylated human DLL3 immobilized on streptavidin sensor chip, 1:1 binding model; read-out: SPR KD
T1 sequence (Q9NYJ7 27-618): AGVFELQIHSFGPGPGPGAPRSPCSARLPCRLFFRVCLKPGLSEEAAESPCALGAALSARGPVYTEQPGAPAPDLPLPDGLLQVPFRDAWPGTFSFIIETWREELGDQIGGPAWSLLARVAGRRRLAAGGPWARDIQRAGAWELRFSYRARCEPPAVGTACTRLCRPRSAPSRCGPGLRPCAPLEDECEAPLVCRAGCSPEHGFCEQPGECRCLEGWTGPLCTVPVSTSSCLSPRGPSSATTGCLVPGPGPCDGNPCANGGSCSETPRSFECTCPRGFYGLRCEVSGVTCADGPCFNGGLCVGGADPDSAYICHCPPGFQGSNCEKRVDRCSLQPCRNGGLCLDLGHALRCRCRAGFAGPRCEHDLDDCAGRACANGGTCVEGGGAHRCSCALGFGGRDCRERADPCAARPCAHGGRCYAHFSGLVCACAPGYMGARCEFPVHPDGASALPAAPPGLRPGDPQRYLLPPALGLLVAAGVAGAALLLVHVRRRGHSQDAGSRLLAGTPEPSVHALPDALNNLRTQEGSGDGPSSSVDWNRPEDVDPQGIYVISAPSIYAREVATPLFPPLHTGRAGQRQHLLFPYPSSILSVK
In short: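 Biotinylated human DLL3 was captured on a streptavidin chip with a reference surface. Compounds at several concentrations were injected at 100 μL/minute in phosphate buffer (137 mM NaCl, 2.7 mM KCl, 0.05% P20, 2% DMSO). Affinity and kinetics came from 1:1 model fits of the sensorgrams.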

CT26.DLL3 cells [1] = test: Cell binding (total uptake) of [177Lu]Lu-test peptide, CT26.DLL3 cells; format: cell-based; settings: 1 hour at 37° C.
Procedure: (§1) [^177Lu]LuCl3 was received from venders in HCl solution. For every mCi of [^177Lu]LuCl3 added to the reaction vial (1.5 mL Eppendorf vial), ammonium acetate buffer (0.2 M, pH 4.9, 100 μL, containing 1% w/v ascorbic acid and 6% v/v ethanol) and peptide conjugate (1 nmol). A peptide conjugate of the present disclosure is also referred to herein as a “chelator-peptide”. The pH of the solution was determined to be approximately 5 by using pH strips. The reaction vial was incubated at 80° C., 700 RPM for 17-20 minutes. A sample from the reaction was analyzed by RP-HPLC using an Agilent Infinity II 1260 HPLC to determine reaction completion and radiochemical purity of [^177Lu]Lu-chelator-peptide. HPLC conditions: Waters XBridge BEH C18 Column, 130 Å, 3.5 um, 4.6 mm×250 mm; mobile phase: Solvent A=water (with 0.1% formic acid), solvent B=acetonitrile (with 0.1% formic acid). Gradients: 25-45% B in 10 minutes, 45-65% B in 12 minutes, 65-90% in 6 minutes at a flow rate of 0.5 mL/minute. Required amounts of the product was formulated in 1% PBSA for cell studies.
(§2) The study was conducted using SHP-77, CT26.WT, and CT26.DLL3 cells (Table 7) Adherent cell studies: The cells were cultured in appropriate culture media (20 mL) in tissue culture treated T150 flasks at 37° C. and 5% CO2. Adherent cells were detached (60-70% confluent) using 5 mL Versene at 37° C. for 3 minutes. After confirming the viability using countess and count of detached cells using Trypan blue, the cells were centrifuged at 4° C. for 5 minutes (1,000 rpm). The cell pellet obtained was washed once with PBS and resuspended in 1% PBSA to obtain the desired cell concentration (5-25 million cells/mL).
(§3) Cell numbers used for the assay were in the range of 5 million cells/condition −25 million cells/condition.
(§4) Total uptake: Cells were incubated with 300 μL (0.8 μCi) of the incubation buffer (containing radiolabeled peptide [^177Lu] Lu-test peptide) for 1 hour at 37° C. (Table 8). Post incubation, the cells were pelleted and washed 2 times using cold PBS+1% BSA. The supernatant and washes were combined and counted together as “unbound fraction” in a gamma counter. The cells were then resuspended in 300 μL of 1% PBS+1% BSA and counted in the gamma counter as “bound fraction”.
(§5) In these Tables, “A” represents %≤25; “B” represents 25<%≤50; “C” represents %>50.

CT26.DLL3 cells [2] = test: Internalization (out of bound fraction) of [177Lu]Lu-test peptide, CT26.DLL3 cells; format: cell-based; settings: 1 hour at 37° C., glycine pH 2.5 wash
Procedure: as §1, §2, §3, §4
Internalization: The resuspended cells in 300 μl of 1% PBSA and counted in the gamma counter as “bound fraction” were collected in 1.5 mL Eppendorf tube and pelleted. The pelleted cells were incubated with 300 μl of 50 mM Glycine pH=2.5 for 3 minutes and then pelleted discarding the supernatant. This process was repeated one more time. The pelleted cells were washed with 300 μl of cold 1% PBSA and then resuspended in 300 μl 0.3M NaOH. This was counted in the gamma counter as “internalized fraction”.
as §5

SHP-77 tumors = test: Ex vivo biodistribution of radiolabeled peptides in nude mice bearing SHP-77 tumors; settings: [177Lu]Lu labelling, nude mice bearing SHP-77 tumors (n = 3), 24 hours post-injection
Procedure: Mice were intravenously injected (via the lateral tail vein) with a bolus dose of the radiolabeled peptides for ex vivo biodistribution studies when tumor volumes were in range of 200-400 mm^3 for xenograft mice and when age of the mice was 5-7 weeks for tumor naïve mice studies. To assess the amount of radionuclide injected into individual mice the syringe was assayed in a dose calibrator before and after injection for [^177Lu]Lu-peptide.
Mice were euthanized at pre-determined time points and selected tissues were resected and collected into pre-weighed tubes. The tubes were then reweighed post resection, the difference giving the weight of each tissue. Radioactivity in each tissue was measured using a gamma counter. Counts were decay corrected to the time of injection and percentage of injected activity per gram (% IA/g) was calculated for each tissue based on the injected activity into each individual mouse. Injected activity was converted to counts based on the sensitivity of the gamma counter. The counts in tissue were then converted to the percentage of injected activity and this was divided by the mass of tissue to give % IA/g.

Q: How did the Kd (human DLL3) turn out when `CC[C@H](C)[C@H](NC(=O)[C@@H](NC(=O)[C@H](Cc1c[nH]c2ccccc12)NC(C)=O)[C@@H](C)O)C(=O)N[C@H]1CSSC[C@@H](C(=O)N[C@@H](Cc2c[nH]c3ccccc23)C(=O)N2CCC[C@H]2C(=O)N[C@H](CCCCNC(=O)CN2CCN(CC(=O)O)CCN(CC(=O)O)CCN(CC(=O)O)CC2)C(N)=O)NC(=O)[C@H](CC(N)=O)NC(=O)[C@H](Cc2cnc[nH]2)NC(=O)[C@H](Cc2ccc3ccccc3c2)NC(=O)[C@H](CC(N)=O)NC(=O)[C@H](CC(N)=O)NC1=O` [compound 211, Ac-W-T-I-C(3)-N-N-(2Nal)-H-(Asn)-C(3)-W-P-[D-Lys(DOTA)]-NH2] (Ac-WTICNN[2Nal]HNCWP[dK](DOTA)-NH2; disulfide 4-10) was run?
A: < 1 nM

Q: And the “% Binding” value (CT26.DLL3 cells [1])?
A: A (%≤25)

Q: And the “% Internalization (out of bound fraction)” value (CT26.DLL3 cells [2])?
A: B (25<%≤50)

Q: And the “kidney uptake (% IA/g)” value (SHP-77 tumors)?
A: D (% IA/g > 10 in kidney)

Q: What about the “tumor uptake (% IA/g)” value (SHP-77 tumors) of the same compound?
A: A (0 < % IA/g ≤ 5 in tumor)

Q: What does the source list for `CC[C@H](C)[C@H](NC(=O)[C@@H](NC(=O)[C@H](Cc1c[nH]c2ccccc12)NC(C)=O)[C@@H](C)O)C(=O)N[C@H]1CSSC[C@@H](C(=O)N[C@@H](Cc2c[nH]c3ccccc23)C(=O)N2CCC[C@H]2C(=O)N[C@H](CCCCNC(=O)CN2CCN(CC(=O)O)CCN(CC(=O)O)CCN(CC(=O)O)CC2)C(N)=O)NC(=O)[C@H](CC(=O)O)NC(=O)[C@H](Cc2cnc[nH]2)NC(=O)[C@H](Cc2ccc3ccccc3c2)NC(=O)[C@H](CC(N)=O)NC(=O)[C@H](CCCCN)NC1=O` [compound 259] (Ac-WTICKN[2Nal]HDCWP[dK](DOTA)-NH2; disulfide 4-10)?
A: Kd (human DLL3): < 1 nM; % Binding (CT26.DLL3 cells [1]): B (25<%≤50)

Q: Which results are given for `CC[C@H](C)[C@H](NC(=O)[C@@H](NC(=O)[C@H](Cc1c[nH]c2ccccc12)NC(C)=O)[C@@H](C)O)C(=O)N[C@H]1CSSC[C@@H](C(=O)N[C@@H](Cc2c[nH]c3ccccc23)C(=O)N2CCC[C@H]2C(=O)N[C@H](CCCCNC(=O)CN2CCN(CC(=O)O)CCN(CC(=O)O)CCN(CC(=O)O)CC2)C(N)=O)NC(=O)[C@H](CC(=O)O)NC(=O)[C@H](Cc2cnc[nH]2)NC(=O)[C@H](Cc2ccc3ccccc3c2)NC(=O)[C@H](CC(N)=O)NC(=O)[C@H](CC2CCNCC2)NC1=O` [compound 260, Ac-W-T-I-C(3)-[3-(4-piperidinyl)-Ala]-N-(2Nal)-H-D-C(3)-W-P-[D-Lys(DOTA)]-NH2] (Ac-WTIC[Ala(piperidin-4-yl)]N[2Nal]HDCWP[dK](DOTA)-NH2; disulfide 4-10)?
A: Kd (human DLL3): < 1 nM; % Binding (CT26.DLL3 cells [1]): B (25<%≤50); kidney uptake (% IA/g) (SHP-77 tumors): C (0 < % IA/g ≤ 10 in kidney); tumor uptake (% IA/g) (SHP-77 tumors): A (0 < % IA/g ≤ 5 in tumor)

Q: How did the Kd (human DLL3) turn out when `CC[C@H](C)[C@H](NC(=O)[C@@H](NC(=O)[C@H](Cc1c[nH]c2ccccc12)NC(C)=O)[C@@H](C)O)C(=O)N[C@H]1CSSC[C@@H](C(=O)N[C@@H](Cc2c[nH]c3ccccc23)C(=O)N2CCC[C@H]2C(=O)N[C@H](CCCCNC(=O)CN2CCN(CC(=O)O)CCN(CC(=O)O)CCN(CC(=O)O)CC2)C(N)=O)NC(=O)[C@H](CC(=O)O)NC(=O)[C@H](Cc2cnc[nH]2)NC(=O)[C@H](Cc2ccc3ccccc3c2)NC(=O)[C@H](CC(N)=O)NC(=O)[C@H](CN2CCOCC2)NC1=O` [compound 261, Ac-W-T-I-C(3)-[3-(1-morpholinyl)-Ala]-N-(2Nal)-H-D-C(3)-W-P-[D-Lys(DOTA)]-NH2] (Ac-WTIC[Ala(morpholin-4-yl)]N[2Nal]HDCWP[dK](DOTA)-NH2; disulfide 4-10) was run?
A: < 1 nM

Q: What about the “% Binding” value (CT26.DLL3 cells [1]) of the same compound?
A: A (%≤25)

Q: What about the “% Internalization (out of bound fraction)” value (CT26.DLL3 cells [2]) of the same compound?
A: B (25<%≤50)

Q: What about the “kidney uptake (% IA/g)” value (SHP-77 tumors) of the same compound?
A: C (0 < % IA/g ≤ 10 in kidney)

Q: What about the “tumor uptake (% IA/g)” value (SHP-77 tumors) of the same compound?
A: A (0 < % IA/g ≤ 5 in tumor)

Q: For `CC[C@H](C)[C@H](NC(=O)[C@@H](NC(=O)[C@H](Cc1c[nH]c2ccccc12)NC(C)=O)[C@@H](C)O)C(=O)N[C@H]1CSSC[C@@H](C(=O)N[C@@H](Cc2c[nH]c3ccccc23)C(=O)N2CCC[C@H]2C(=O)N[C@H](CCCCNC(=O)CN2CCN(CC(=O)O)CCN(CC(=O)O)CCN(CC(=O)O)CC2)C(N)=O)NC(=O)[C@H](CC(=O)O)NC(=O)[C@H](Cc2cnc[nH]2)NC(=O)[C@H](Cc2ccc3ccccc3c2)NC(=O)[C@H](CC(N)=O)NC(=O)[C@H](Cc2cccnc2)NC1=O` [compound 263, Ac-W-T-I-C(3)-(3Pya)-N-(2Nal)-H-D-C(3)-W-P-[D-Lys(DOTA)]-NH2] (Ac-WTIC[3Pal]N[2Nal]HDCWP[dK](DOTA)-NH2; disulfide 4-10), which Kd (human DLL3) is on record?
A: < 1 nM

Q: What about the “% Binding” value (CT26.DLL3 cells [1]) of the same compound?
A: A (%≤25)

Q: What about the “% Internalization (out of bound fraction)” value (CT26.DLL3 cells [2]) of the same compound?
A: B (25<%≤50)

Q: And the “kidney uptake (% IA/g)” value (SHP-77 tumors)?
A: C (0 < % IA/g ≤ 10 in kidney)

Q: What about the “tumor uptake (% IA/g)” value (SHP-77 tumors) of the same compound?
A: A (0 < % IA/g ≤ 5 in tumor)

Q: For `CC[C@H](C)[C@H](NC(=O)[C@@H](NC(=O)[C@H](Cc1c[nH]c2ccccc12)NC(C)=O)[C@@H](C)O)C(=O)N[C@H]1CSSC[C@@H](C(=O)N[C@@H](Cc2c[nH]c3ccccc23)C(=O)N2CCC[C@H]2C(=O)N[C@H](CCCCNC(=O)CN2CCN(CC(=O)O)CCN(CC(=O)O)CCN(CC(=O)O)CC2)C(N)=O)NC(=O)[C@H](CC(=O)O)NC(=O)[C@H](Cc2cnc[nH]2)NC(=O)[C@H](Cc2ccc3ccccc3c2)NC(=O)[C@H](CC(N)=O)NC(=O)[C@H](Cc2ccncc2)NC1=O` [compound 264, Ac-W-T-I-C(3)-(4Pya)-N-(2Nal)-H-D-C(3)-W-P-[D-Lys(DOTA)]-NH2] (Ac-WTIC[4Pal]N[2Nal]HDCWP[dK](DOTA)-NH2; disulfide 4-10), which Kd (human DLL3) is on record?
A: < 1 nM

Q: What about the “% Binding” value (CT26.DLL3 cells [1]) of the same compound?
A: A (%≤25)

Q: And the “% Internalization (out of bound fraction)” value (CT26.DLL3 cells [2])?
A: B (25<%≤50)

Q: What about the “kidney uptake (% IA/g)” value (SHP-77 tumors) of the same compound?
A: C (0 < % IA/g ≤ 10 in kidney)

Q: What about the “tumor uptake (% IA/g)” value (SHP-77 tumors) of the same compound?
A: A (0 < % IA/g ≤ 5 in tumor)
